# Results: patent US8835510B2, “Methods and compositions for treating conditions mediated by oxidative stress or electrophilic environmental toxins” (priority 2010, dated 2014)
# Several values for one entry are separate records, joined by “and”; a condition that tells them apart may be missing. Equal values may be shown once. Entries after “also recorded” stand apart in the source; their conditions may differ.
# What was measured:
# [1] = pKa and enolate ionization of enol compounds; type: physicochemical; conditions: for fraction in the anionic enolate state: pH 7.4 (neutral / cellular pH); for increase in enolate concentration: pH 9.0 relative to pH 7.4
# [2] = Kinetic assay of acrolein-induced N-acetyl cysteine (NAC) sulfhydryl loss (DTNB method); conditions: for sulfhydryl (NAC) protection, pre-incubation: acrolein pre-incubated with test compound, NAC added one hour later; for rate of sulfhydryl loss (mean rate±SE): NAC + acrolein 150 μM + test compound 50 μM co-incubated, Krebs buffer pH 7.4, 30° C.; for rate of acrolein-induced sulfhydryl (NAC) loss (mean rate±95% confidence interval): pH 7.4; for ability to slow acrolein-induced NAC thiol loss: co-incubation, test compound 50 μM, pH 7.4 (FIG. 3A)
# Excerpt: As an index of cytoprotection, these studies focused on the abilities of 1,3-dicarbonyl compounds to prevent electrophile-induced loss of protein and non-protein sulfhydryl groups. This experimental focus is based on substantial evidence that soft electrophiles, like acrolein, produce toxicity by forming Michael-type adducts with soft nucleophilic thiolate (anionic sulfhydryl) groups on functionally critical proteins^9, 17, 22, 56, 57 (reviewed in^28, 58, 62, 77, 94). […] To test this hypothesis, a determination was made of the ability of AcAc and other structurally related enol analogs to prevent sulfhydryl (nucleophile) adduction by acrolein (electrophile)^56. […] Free sulfhydryl concentrations were determined over time (up to 15 mins) by the DTNB method of LoPachin et al.^52.
# Therefore, as a kinetic index of competitive thiol protection by enolate sequestration, the relative in vitro abilities of 1,3-dicarbonyl compounds and phloretin to slow the rate of acrolein-induced sulfhydryl loss were measured.
# [3] = system: acrolein-exposed striatal synaptosomes; experiment: Protection against acrolein-induced inhibition of 3H-dopamine transport in striatal synaptosomes; type: cell-based, rat; conditions: for change in acrolein IC50 for inhibition of DA transport: test compound 500 μM, Krebs buffer pH 7.4, 30° C., 15 mins (FIG. 5A)
# [4] = system: acrolein-exposed striatal synaptosomes; experiment: Protection against acrolein-induced thiol loss in striatal synaptosomes (DTNB); type: cell-based, rat; conditions: for cytoprotection / thiol protection in acrolein-exposed synaptosomes: pH 7.4, test compound 500 μM
# Protocol: Therefore, as an investigation of possible cytoprotection, a determination was made of the relative abilities of the above 1,3-dicarbonyl structural series to prevent thiol loss in acrolein-exposed rat striatal synaptosomes (isolated CNS nerve terminals). Synaptosomes were prepared according to the methods of LoPachin et al.^52 and were exposed (Krebs buffer, pH 7.4, 30° C.×15 mins) to graded concentrations of acrolein (1-1000 μM) alone or in combination with a 1,3-dicarbonyl derivative or control compound (500 μM). […] The respective IC50s and 95% confidence intervals were calculated by the […] (Prism 3.0, GraphPad Software). The selected 1,3-dicarbonyls are carbanion nucleophiles and, therefore, the analyses also included NAC as a representative thiolate-type nucleophile. Studies were conducted to assess the in vitro toxicity of the selected enol derivatives (FIG. 4).
# Studies were carried out using isolated brain nerve terminals (striatal synaptosomes) exposed to acrolein as a model of electrophile-induced toxicity, as illustrated in FIG. 5A-5B. Acrolein is a soft electrophile that inhibits protein function by forming adducts with soft nucleophilic cysteine residues and thereby causes synaptosomal toxicity.
# [5] = system: MN9D cells; experiment: Cell viability (trypan blue) in acrolein-exposed MN9D cultures; conditions: for concentration dependence of protection against acrolein: graded concentrations: 2-ACP 100-750 μM, AcAc 250-1000 μM (range-finding 50-1000 μM); for protection against acrolein-induced cell death (words): pre-incubation 60 minutes, 750 μM each (phloretin 100 μM); for increase in acrolein LC50: test compound 750 μM pre-incubation
# Protocol: (§1) As a more complex biological model, a determination was made of the relative abilities of the 1,3-dicarbonyls to protect MN9D cells, a dopaminergic cell line, from acrolein- (FIG. 6) or hydrogen peroxide (H2O2)-induced cell death (FIG. 7). Briefly, two days after plating, cells were incubated with AcAc (750 μM) for one hr followed by exposure to graded concentrations of either acrolein (0.50-150 μM×24 hrs) or H2O2 (50-750 μM×24 hrs). Cell viability was determined by trypan blue (0.1%) exclusion. Living cells were counted in a hemocytometer and total cells per dish were calculated.
# [6] = system: MN9D cells; experiment: Cell viability (trypan blue) in H2O2-exposed MN9D cultures; conditions: for concentration dependence of protection against H2O2: graded concentrations: 2-ACP 250-750 μM, AcAc 500-1500 μM (range-finding 50-1000 μM); for protection against H2O2-induced cell death: test compound 750 μM (phloretin 100 μM); for protection against H2O2-induced cytotoxicity: FIG. 7
# Protocol: as §1
# This system represents a more complete model of oxidative stress since the hydroxyl radical formed from intracellular H2O2 during the Fenton reaction, subsequently mediates the generation of toxic aldehyde by-products such as acrolein and 4-hydroxy-2-nonenal (HNE).
# [7] = Free radical scavenging (DPPH absorbance method of Ak and Gulcin)
# Protocol: The relative abilities of selected 1,3-dicarbonyl compounds to scavenge free radicals were determined using the spectrophotometric method of Ak and Gulcin (2008)^4 that measures changes in the absorbance of the 2,2-diphenyl-1-picrylhydrazyl radical.
# [8] = Ferrous ion chelation (method of Dairam et al.); conditions: for EC50: read-out: concentration at which 50% Fe^2+ chelation occurs
# [9] = system: Male rats; experiment: 2-ACP toxicity in rats (14 day i.p. dosing); type: in vivo, rat; conditions: i.p. 100, 200 or 300 mg/kg/d×14 days
# Protocol: (§2) This study was carried out in accordance with the NIH Guide for Care and Use of Laboratory Animals and approved by the Montefiore Medical Center Animal Care and Use Committee. Adult male rats (Sprague-Dawley, Taconic Farms, Germantown, N.Y., USA) were used in this study. Rats were housed individually in polycarbonate boxes, and drinking water and Purina Rodent Laboratory Chow (Purina Mills, Inc., St. Louis, Mo., USA) were available ad libitum.
# (§3) Male rats (200-250 gm) were injected (i.p.) with 2-ACP at three different daily dose-rates: 100, 200 or 300 mg/kg/d×14 days. Rats were observed 3 times per week for signs of developing toxicity; i.e., body weight loss, general appearance, water/food consumption, gait performance and home cage behavior. […] As a model of in vivo oxidative stress, rats (200-250 gm) were administered 30 μl of carbon tetrachloride (CCl4) in corn oil (ip) following six daily doses of 2-ACP (200 mg/kg/d) by gavage. […] These findings indicate that 2-ACP decreased the degree of hepatic cell death caused by CCl4.
# [10] = system: CCl4-intoxicated rats; experiment: Protection from carbon tetrachloride-induced hepatotoxicity in rats; type: in vivo, rat; conditions: 2-ACP 200 mg/kg/d by gavage, six daily doses, then CCl4 30 μl ip; plasma 24 hours after
# Protocol: as §2, §3
# [11] = Aqueous solubility; type: physicochemical
# [12] = system: whole animal; conditions: cited from earlier work
# [13] = co-incubation with test compound 500 μM
SMILES,pKa [1],fraction in the anionic enolate state [1],"sulfhydryl (NAC) protection, pre-incubation [2]",protection against acrolein-induced cell death (words) [5],protection against H2O2-induced cell death [6],rate of sulfhydryl loss (mean rate±SE) [2],change in acrolein IC50 for inhibition of DA transport [3],also measured
"CC(=O)C1CCCC1=O (stereo not drawn) [2-ACP, 2-acetylcyclopentanone]",7.8,~50%,completely preserved,completely prevented cell death,nearly complete protection,,,"sulfhydryl (NAC) protection, co-incubation ([2]; all chemicals added simultaneously): complete sulfhydryl protection; increase in acrolein IC50 for 3H-DA transport inhibition [3, 13]: 15 fold; increase in acrolein IC50 for synaptosomal thiol loss [4, 13]: 15 fold; concentration dependence of protection against acrolein [5]: significant increases in the LC50; concentration dependence of protection against H2O2 [6]: significant increases in the LC50 of H2O2; DPPH scavenging rate, fold slower than curcumin ([7]; relative to curcumin): 30-40 fold; EC50 [8]: 211 µM; overt signs of toxicity (body weight loss, appearance, water/food consumption, gait, home cage behavior) [9]: did not cause overt signs of toxicity; reduction of plasma alanine transferase (ALT) relative to toxicant only [10]: 40%; reduction of plasma aspartate transferase (AST) relative to toxicant only [10]: 52%; water solubility [11]: water soluble"
"CC(=O)CC(C)=O [AcAc, acetylacetone]",8.9,,modestly effective,significantly increased the acrolein LC50,modestly effective,−24.9±5 nmol SH sec^−1,largest increases in the acrolein IC50,increase in enolate concentration [1]: ~100 fold; rate of acrolein-induced sulfhydryl (NAC) loss (mean rate±95% confidence interval) [2]: -24.9 ± 3.6 nmol/s; rate of acrolein-induced sulfhydryl (NAC) loss ([2]; pH 9.0): -2.43 ± 2.2 nmol/s; thiol protection against acrolein at elevated pH ([2]; pH 9.0): substantially elevated; also recorded: completely protective; concentration dependence of protection against acrolein [5]: concentration-dependent protection; also recorded: significant increases in the LC50; increase in acrolein LC50 [5]: ~7 fold; protection against H2O2-induced cytotoxicity [6]: 3 fold; concentration dependence of protection against H2O2 [6]: concentration-dependent protection; also recorded: significant increases in the LC50 of H2O2; EC50 [8]: 909 µM; LD50 [12]: 175 mg/kg
"O=C1CCC(=O)C1 [CPD, 1,3-cyclopentanedione]",,,modestly effective,completely prevented cell death,ineffective,,,
"CCOC(=O)CC(=O)OCC [DEM, diethyl malonate]",12.9,< 0.1%,,neither DEM nor HD were effective,ineffective,,Neither DEM nor HD significantly affected,increase in enolate concentration [1]: ~100 fold; cytoprotection / thiol protection in acrolein-exposed synaptosomes [4]: not cytoprotective
"CC1(C)CC(=O)CC(=O)C1 [DMD, 5,5-Dimethyl-1,3-cyclohexanedione]",5.3,99%,significant thiol protection,did not provide protection,,−2.4±0.3 nmol SH sec^−1,largest increases in the acrolein IC50,cytoprotection / thiol protection in acrolein-exposed synaptosomes [4]: powerful cytoprotectant; protection against acrolein-induced cell death in serum-free medium [5]: substantial increases in the acrolein LC50
O=C(O)CN(CCN(CC(=O)O)CC(=O)O)CC(=O)O [EDTA],,,,,,,,EC50 [8]: 31 µM
"CC(=O)CCC(C)=O [HD, 2,5-hexanedione, reference compound]",,,did not affect the rate of acrolein-induced thiol loss,neither DEM nor HD were effective; also recorded: slight increase in LC50,ineffective,,Neither DEM nor HD significantly affected,ability to slow acrolein-induced NAC thiol loss [2]: not effective
"CC(=O)C(C)C(C)=O [MPD, 3-methyl-2,4-pentanedione]",10.8,,,,,,,ability to slow acrolein-induced NAC thiol loss [2]: minimally protective
"CC1(C)OC(=O)CC(=O)O1 [Meld. Acid, 2,2-dimethyl-1,3-dioxane-4,6-dione]",4.8,,significant thiol protection,did not provide protection,,,largest increases in the acrolein IC50,protection against acrolein-induced cell death in serum-free medium [5]: substantial increases in the acrolein LC50
"CC(=O)N[C@@H](CS)C(=O)O [NAC, N-acetyl cysteine, reference compound]",,,,nearly complete protection; also recorded: completely prevented cell death,significantly less efficacious; also recorded: less protective,,largest increases in the acrolein IC50,"DPPH radical scavenging [7]: modest free radical scavenging; Fe^2+ chelating activity [8]: little, if any, Fe^2+ chelating activity"
"CC(=O)CC(=O)C(F)(F)F [TFPD, 1,1,1,-trifluoro-2,4-pentanedione]",,> 99% and 99%,modestly effective,significantly increased the acrolein LC50,modestly effective,−52.1±5 nmol SH sec^−1,more modest,thiol protection against acrolein at elevated pH ([2]; pH 9.0): none was observed; also recorded: did not increase; cytoprotection / thiol protection in acrolein-exposed synaptosomes [4]: some thiol protection; increase in acrolein LC50 [5]: ~7 fold; protection against H2O2-induced cytotoxicity [6]: 3 fold
C=CC=O [acrolein],,,,,,−78.4±7 nmol SH sec^−1,,"rate of acrolein-induced sulfhydryl (NAC) loss (mean rate±95% confidence interval) [2]: -78.4 ± 6.2 nmol/s; IC50 ([3]; Rattus norvegicus, acrolein alone, 0.001-1 mM, read-out: IC50 of acrolein for decrease in membrane 3H-DA transport): 66 µM; IC50 ([4]; Rattus norvegicus, acrolein alone, 0.001-1 mM, read-out: IC50 of acrolein for loss of synaptosomal sulfhydryl groups): 74 µM"
"COc1cc(/C=C/C(=O)CC(=O)/C=C/c2ccc(O)c(OC)c2)ccc1O [curcumin, reference compound]",8,,,,,,,water solubility [11]: insolubility in aqueous solutions
